Results from article PMC8318836 (Bioorganic Chemistry, 2021).

Key:
Huh 7 cells = conditions: concentration of 50% cellular toxicity in Huh 7 cells
VSV G pseudovirus = format: cell-based, vesicular stomatitis virus (VSV); conditions: read-out: EC50-VSV
SARS-CoV-2 pseudovirus [1] = format: cell-based; conditions: for EC50: read-out: EC50-SARS-CoV-2
SARS-CoV-2 pseudovirus [2] = experiment: Single-cycle time-of-addition experiment on SARS-CoV-2 pseudovirus; format: cell-based; conditions: 25 µM, Huh 7 cells

Structure (SMILES)	CC50 (Huh 7 cells)	EC50 (VSV G pseudovirus)	EC50 (SARS-CoV-2 pseudovirus [1])	anti-SARS-CoV-2 activity compared to lead 1 (SARS-CoV-2 pseudovirus [1])	inhibition rate, process d (SARS-CoV-2 pseudovirus [2]; added 1 h post infection)	inhibition rate, process b (SARS-CoV-2 pseudovirus [2]; added during pseudovirus infection at 0 °C)	inhibition rate, process a (SARS-CoV-2 pseudovirus [2]; added during pseudovirus infection at 37 °C)
O=C(CN1CCCC2=CC3CC(CN4CCCCC34)C21)Nc1ccc(I)cc1 (stereo not shown) [11c, 12N-N′-p-Iodophenylcarbamoylmethyl aloperine]	124 µM	47.8 µM	29.5 µM	–	–	–	–
O=C(CN1CCCC2=CC3CC(C4CCCCN4C3)C21)Nc1ccc(Cl)cc1Cl (stereo not shown) [11d, 12N-N′-(2,4-Dichlorophenyl)carbamoylmethyl aloperine]	167 µM	70.5 µM	54.8 µM	–	–	–	–
O=C(CN1CCCC2=CC3CC(C4CCCCN4C3)C21)Nc1cc(Br)ccc1Cl (stereo not shown) [11g, 12N-N′-(5-Bromo-2-chlorophenyl)carbamoylmethyl aloperine]	> 267 µM	77.5 µM	90.3 µM	–	–	–	–
Cc1cc(Cl)ccc1NC(=O)CN1CCCC2=CC3CC(C4CCCCN4C3)C21 (stereo not shown) [11j, 12N-N′-(4-Chloro-2-methylphenyl)carbamoylmethyl aloperine]	> 267 µM	75.1 µM	107 µM	–	–	–	–
O=C(CN1CCCC2=CC3CC(C4CCCCN4C3)C21)Nc1cc(Cl)cc(C(F)(F)F)c1 (stereo not shown) [11k, 12N-N′-(3-Chloro-5-trifluoromethylphenyl)carbamoylmethyl aloperine]	57.1 µM	17.5 µM	10.4 µM	slightly elevated activity	–	–	–
Cc1ccc(NC(=O)CN2CCCC3=CC4CC(CN5CCCCC45)C32)cc1C (stereo not shown) [11n, 12N-N′-(3,4-Dimethylphenyl)carbamoylmethyl aloperine]	> 267 µM	108 µM	70.8 µM	–	–	–	–
O=C(CN1CCCC2=CC3CC(CN4CCCCC34)C21)Nc1cc(C(F)(F)F)cc(C(F)(F)F)c1 (stereo not shown) [11o, 12N-N′-(3,5-Ditrifluoromethylphenyl)carbamoylmethyl aloperine]	71 µM	21.9 µM	17 µM	–	–	–	–
O=C(CN1CCCC2=CC3CC(C4CCCCN4C3)C21)Nc1ccc2ccccc2c1 (stereo not shown) [11p, 12N-N′-(2-Naphthyl)carbamoylmethyl aloperine]	96.7 µM	43.5 µM	37.1 µM	–	–	–	–
O=C(CN1CCCC2=CC3CC(CN4CCCCC34)C21)Nc1ccc2ccccc2n1 (stereo not shown) [11q, 12N-N′-(2-Quinolyl)carbamoylmethyl aloperine]	> 267 µM	120 µM	67.4 µM	–	–	–	–
O=C(CNc1ccccc1)N1CCCC2=CC3CC(CN4CCCCC34)C21 (stereo not shown) [14a, 12N-N′-Phenylaminoacetyl aloperine]	> 267 µM	> 267 µM	> 267 µM	–	–	–	–
O=C(CNc1ccc(F)cc1)N1CCCC2=CC3CC(CN4CCCCC34)C21 (stereo not shown) [14b, 12N-N′-p-Fluorophenylaminoacetyl aloperine]	> 267 µM	> 267 µM	177 µM	–	–	–	–
O=C(CNc1ccc(Cl)cc1)N1CCCC2=CC3CC(CN4CCCCC34)C21 (stereo not shown) [14d, 12N-N′-p-Chlorophenylaminoacetyl aloperine]	> 267 µM	163 µM	61.3 µM	–	–	–	–
O=C(CNc1ccc(Br)cc1)N1CCCC2=CC3CC(CN4CCCCC34)C21 (stereo not shown) [14e, 12N-N′-p-Bromophenylaminoacetyl aloperine]	180 µM	85.4 µM	37.3 µM	–	–	–	–
O=C(CNc1cccc(C(F)(F)F)c1)N1CCCC2=CC3CC(CN4CCCCC34)C21 (stereo not shown) [14h, 12N-N′-m-Trifluoromethylphenylaminoacetyl aloperine]	> 267 µM	134 µM	69.2 µM	–	–	–	–
COc1cccc(NCC(=O)N2CCCC3=CC4CC(C5CCCCN5C4)C32)c1 (stereo not shown) [14i, 12N-N′-m-Methoxyphenylaminoacetyl aloperine]	> 267 µM	> 267 µM	> 267 µM	–	–	–	–
O=C(CNc1ccc(Cl)cc1Cl)N1CCCC2=CC3CC(CN4CCCCC34)C21 (stereo not shown) [14k, 12N-N′-(2,4-Dichlorophenylamino)acetyl aloperine]	65.8 µM	36.2 µM	17.8 µM	–	–	–	–
O=C(CNc1ccc(Cl)c(Cl)c1)N1CCCC2=CC3CC(C4CCCCN4C3)C21 (stereo not shown) [14l, 12N-N′-(3,4-Dichlorophenylamino)acetyl aloperine]	63 µM	35.9 µM	15.8 µM	–	–	–	–
Cc1cc(C)cc(NCC(=O)N2CCCC3=CC4CC(CN5CCCCC45)C32)c1 (stereo not shown) [14m, 12N-N′-(3,5-Dimethylphenylamino)acetyl aloperine]	> 267 µM	> 267 µM	> 267 µM	–	–	–	–
COc1cc(NCC(=O)N2CCCC3=CC4CC(CN5CCCCC45)C32)cc(OC)c1 (stereo not shown) [14n, 12N-N′-(3,5-Dimethoxyphenylamino)acetyl aloperine]	> 267 µM	> 267 µM	> 267 µM	–	–	–	–
O=C(CNc1cc(C(F)(F)F)cc(C(F)(F)F)c1)N1CCCC2=CC3CC(CN4CCCCC34)C21 (stereo not shown) [14o, 12N-N′-(3,5-Ditrifluoromethylphenylamino)acetyl aloperine]	113 µM	48.3 µM	37.6 µM	–	–	–	–
O=C(CNc1cccc2ccccc12)N1CCCC2=CC3CC(C4CCCCN4C3)C21 (stereo not shown) [14p, 12 N-N′-(1-Naphthylamino)acetyl aloperine]	199 µM	125 µM	73.6 µM	–	–	–	–
O=C(CNc1ccc2ccccc2c1)N1CCCC2=CC3CC(CN4CCCCC34)C21 (stereo not shown) [14q, 12N-N′-(2-Naphthylamino)acetyl aloperine]	224 µM	108 µM	87.2 µM	–	–	–	–
O=C(Nc1ccc(F)cc1F)N1CCCC2=CC3CC(CN4CCCCC34)C21 (stereo not shown) [15a, 12N-N′-(2,4-Difluorophenyl)carbamoyl aloperine]	> 267 µM	139 µM	195 µM	–	–	–	–
O=C(Nc1cc(C(F)(F)F)cc(C(F)(F)F)c1)N1CCCC2=CC3CC(CN4CCCCC34)C21 (stereo not shown) [15c, 12N-N′-(3,5-Ditrifluoromethylphenyl)carbamoyl aloperine]	53.9 µM	14.9 µM	11.5 µM	–	–	–	–
CCCNC(=O)[C@H]1O[C@@H]1C(=O)N[C@H](C(=O)N1CCC[C@H]1C(=O)O)[C@@H](C)CC [CA-074, reference compound]	231 µM	10.5 µM	2.7 µM	–	93%	77%	87%
